Test results as given in patent US20220118117A1, “MODULATORS OF METABOTROPIC GLUTAMATE RECEPTOR 4” (The General Hospital Corporation, priority 2019, published 2022).
Values joined by “and” are separate entries in the source; they are usually repeats but may differ in a detail not shown here. Identical values can stand only once.

Assays:
plasma stability = type: in vitro ADME; settings: rat plasma; for Plasma stability, remaining of the intact test compound: 37° C.
Description: Briefly, each tube is added 882 μL of 1:1 diluted rat plasma with phosphate buffer (pH 7.4). 18 μL (100 μM) of DMSO stock solution of the test compound (4, 13 and 15) or positive control compound (Diltiazem) was added to make a final compound concentration 2 μM in the plasma solution and final DMSO content 2%. The mixture was incubated at 37° C. After the incubation at 0, 15, 30, 60, and 120 min time points, aliquots of 50 μL samples were quenched with 100 μL of ice-cold acetonitrile with 25 μM of the internal reference (for HPLC analysis), respectively. The quenched samples were centrifuged at 10,000×g, and the supernatant was analyzed by HPLC. The percentage of remaining intact test compound was calculated by (peak area at the specific time point)/(peak area at 0 min)×100. Every sample was assayed three times.

microsomal stability = type: in vitro ADME, Sprague-Dawley rat; settings: rat liver microsomes, NADPH
Description: First, Sprague-Dawley rat liver microsomes (0.5 mg/mL, Sigma-Aldrich, No. M9066) was incubated with PBS (50 mM, pH=7.4) in a reaction tube at 37° C. for 3 min. To the reaction tube were added the test compound (2 μM) and then cofactor, NADPH (1 mM), to start the reaction. The mixture was shaken in a water bath at 37° C. At different time points (0, 5, 10, 15, 30 min), aliquots (50 μL) were removed and added to 100 μl of cold acetonitrile with internal standard (25 μM) to quench the reaction. The precipitated material was by centrifugation (10,000×g, 10 min, 4° C.), and the supernatant was analyzed by RP-HPLC (Column: Phenomenex Luna© 5 μm, Cis, 100 Å, 250×4.6 mm). The RP-HPLC was carried out by using a 15-min gradient method: eluent A: 0.1% formic acid/H2O; eluent B: 0.1% formic acid/CH3CN; gradient: […]; 5% B to 95% B from 1 to 9 min, 95% B from 9 to 12 min, 95% to 5% B from 12 to 13 min, 5% B from 13 to 15 min; flow rate at 0.7 mL/min.
The in peak area ratio (test compound peak area at a time point/peak area at 0 min time point) was plotted against time and the gradient of the line was determined. Subsequently, the half-life (t1/2) was calculated as 0.693/k, where the elimination rate constant k equals to −gradient. V (μL/mg) was obtained as a ratio of volume of incubation […]/protein in the incubation (mg). Finally, the intrinsic clearance (CLint) (μL/min/mg protein) was calculated as V*0.693/t1/2.

[1] = system: other mGlu receptors (mGluR1, mGluR5, mGluR2, mGluR3, mGluR6, mGluR8); experiment: mGluR subtype selectivity (Ca2+ mobilization and cAMP assays); type: cell-based; settings: Gq coupled: Ca2+ mobilization; Gi/o coupled: cAMP assay
Description: Ca^2+ mobilization assay. The Gq coupled receptors (mGluR1 and mGluR5) were tested using Ca^2+ mobilization assay. mGluR1 stable cell lines were plated into poly-L-lysine (PLL) coated 384-well black clear bottom cell culture plates with complete Basal Medium Eagle (BME) buffer, which was composed of 10% dialyzed FBS, penicillin G (100 units/mL), streptomycin (100 μg/mL) with Tetracycline (1 μg/mL) at density of 20,000 cells in 40 μl per well for overnight. […] Once loaded in FLIPR (Molecular Devices), basal fluorescence was measured for 10 s, then 10 μL of test or reference compounds were added, followed by continued fluorescence measurement for an additional 120 s. […]
cAMP assay. […] Luminescence was counted in a Trilux luminescence counter. Data were analyzed with Prizm 5.0 (GraphPad software).
The selectivity of 15 was also analyzed among the various mGluR subtypes, in which the Gq coupled receptors (mGluR1 and mGluR5) were tested using Ca^2+ mobilization assay and the Gi/o coupled receptors (mGluR2, mGluR3, mGluR4, mGluR6 and mGluR8) using the cAMP assay.

Plasma stability, remaining of the intact test compound (plasma stability; 0 min): 100.00 ± 1.88%
Plasma stability, remaining of the intact test compound (plasma stability; 15 min): 93.46 ± 1.96%
Plasma stability, remaining of the intact test compound (plasma stability; 30 min): 104.21 ± 2.84%
Plasma stability, remaining of the intact test compound (plasma stability; 60 min): 94.54 ± 5.18%
Plasma stability, remaining of the intact test compound (plasma stability; 120 min): 84.52 ± 10.16%
The plasma stability, The intact ± SEM at 120 min (%) (plasma stability; 120 min): 84.5 ± 10.2%
The microsome stability t1/2 (microsomal stability): 57.258 min and 57.3 min
SMILES: [2H]C([2H])(F)Sc1cc(NC(=O)c2ccccn2)ccc1Cl [Compound 15, N-(4-Chloro-3-((fluoromethyl-d2)thio)phenyl)picolinamide]
selectivity among mGluR subtypes [1]: has selectivity against other mGlu receptors
